From patent US20250171414A1, “COMPOUND SERVING AS MASP-2 INHIBITOR, PHARMACEUTICAL COMPOSITION, PREPARATION METHOD THEREFOR, AND USE THEREOF” (WUHAN CREATERNA SCIENCE AND TECHNOLOGY CO., LTD., priority 2022, published 2025)
Read-outs that look alike come from different tables or passages of the source.

Assays:
[1] = In vivo pharmacokinetic study in SD rats; conditions: 1 mg/kg, clear
Procedure: After adaptive feeding, the SPF SD rats were each subjected to a single administration of 1 mg/kg or 3 mg/kg of the compound of the present disclosure intragastrically or by tail vein bolus injection. Plasma was collected at specific time points after administration, and the concentration of the compound in plasma was detected by LC-MS/MS (AB Sciex Qtrap 4500).

[2] = system: lectin pathway (MBL) in human serum; assay: Inhibition of activity of lectin pathway (MBL) in human serum (WIESLAB Complement System MBL Pathway kit); type: biochemical; conditions: 1% human serum
Procedure: The inhibition of the activity of the lectin pathway (MBL) in human serum by compounds was detected using a WIESLAB® Complement System MBL Pathway kit (SVAR, COMPLMP320). Test compounds were each serially diluted in a buffer (Diluent MP), and 1% human serum was incubated with the diluted compound solution for 15 min at room temperature. 100 μL of the mixture was added to a microplate and incubated at 37° C. for 60 min. The liquid in the wells was discarded, and the microplate was washed three times with a washing solution. A Conjugate antibody solution was added at 100 μL/well, and the resulting mixture was incubated for 30 min at 25° C. The liquid in the wells was discarded, and the microplate was washed three times with a washing solution; a substrate solution was added at 100 μL/well, and the resulting mixture was incubated for 30 min at 25° C.; the terminator was added at 50 μL/well, and the absorbance at 405 nm was detected within 30 min by using a microplate reader.

[3] = Sprague-Dawley (SD), rat, plasma, IV, not fasting
[4] = Sprague-Dawley (SD), rat, plasma, IV, not fasting, read-out: Cmax
[5] = Sprague-Dawley (SD), rat, plasma, PO, fasting
[6] = Sprague-Dawley (SD), rat, plasma, PO, fasting, read-out: Cmax

Structure (SMILES)	AUC(0-t) [1, 3]	half-life [1, 3]	Cmax [1, 4]	AUC(0-t) [1, 5]	half-life [1, 5]	Cmax [1, 6]	IC50 [2]	also measured
C[C@H](NC(=O)C1C=C(c2ccc(F)cc2)CCN1)C(=O)N[C@@H]1CCc2nc(N)ccc21 (single isomer, unassigned) [Compound L064-IS-02]	15600 ± 5150 ng·h/mL	4.18 ± 1.02 h	16000 ± 2070 ng/mL	2630 ± 245 ng·h/mL	5.57 ± 1.46 h	875 ± 155 ng/mL	7.57 nM	
C[C@H](NC(=O)[C@@H]1C=C(c2ccc(Cl)cc2)CCN1)C(=O)N[C@@H]1CCc2nc(N)ccc21 (single isomer, unassigned) [Compound L066-IS-02]	17100 ± 4640 ng·h/mL	4.51 ± 1.29 h	15900 ± 1070 ng/mL	3240 ± 233 ng·h/mL	4.93 ± 0.51 h	1140 ± 164 ng/mL	9.52 nM	
C[C@H](NC(=O)[C@@H]1C=C(c2ccc(F)c(F)c2)CCN1)C(=O)N[C@@H]1CCc2nc(N)ccc21 (single isomer, unassigned) [Compound L069-IS-02]	20000 ± 3840 ng·h/mL	3.39 ± 0.17 h	15700 ± 1130 ng/mL	6930 ± 968 ng·h/mL	3.37 h	1190 ± 162 ng/mL	17.4 nM	
C[C@H](NC(=O)[C@@H]1C=C(c2ccc(F)cc2F)CCN1)C(=O)N[C@@H]1CCc2nc(N)ccc21 (single isomer, unassigned) [Compound L076-IS-02]	25900 ± 556 ng·h/mL	5.88 ± 0.27 h	22500 ± 1030 ng/mL	6970 ± 1210 ng·h/mL	4.29 ± 0.28 h	1350 ± 423 ng/mL	11.6 nM	
C[C@H](NC(=O)[C@H]1C[C@H](Cc2ccc(Cl)cc2)CN1)C(=O)NC1CCc2nc(N)ccc21 (stereo partly drawn) [Compound L003, (2R,4S)—N-((2S)-1-((2-amino-6,7-dihydro-5H-cyclopenta[b]pyridin-5-yl)amino)-1-oxopropan-2-yl)-4-(4-chlorobenzyl) pyrrolidine-2-carboxamide]							5.17 nM	AUClast ([1]; IV, not fasting): 95060 ± 770 ng·h/mL; Cmax ([1]; IV, not fasting): 25400 ± 1940 ng/mL; T1/2 ([1]; IV, not fasting): 5.84 ± 0.55 h; AUClast ([1]; PO, fasting): 11167 ± 1986 ng·h/mL; Cmax ([1]; PO, fasting): 1777 ± 394 ng/mL; T1/2 ([1]; PO, fasting): 5.89 h
C[C@H](NC(=O)[C@H]1C[C@H](Cc2ccc(F)c(Cl)c2)CN1)C(=O)NC1CCc2nc(N)ccc21 (stereo partly drawn) [Compound L012, (2R,4S)—N-((2S)-1-((2-amino-6,7-dihydro-5H-cyclopenta[b]pyridin-5-yl)amino)-1-oxopropan-2-yl)-4-(3-chloro-4-fluorobenzyl) pyrrolidine-2-carboxamide]							4.06 nM	AUClast ([1]; IV, not fasting): 97054 ± 1914 ng·h/mL; Cmax ([1]; IV, not fasting): 26933 ± 1167 ng/mL; T1/2 ([1]; IV, not fasting): 12.0 ± 3.72 h; AUClast ([1]; PO, fasting): 11618 ± 919 ng·h/mL; Cmax ([1]; PO, fasting): 1777 ± 98.2 ng/mL; T1/2 ([1]; PO, fasting): 12.7 h
C[C@H](NC(=O)[C@H]1C[C@H](Cc2cccc(Cl)c2)CN1)C(=O)NC1CCc2nc(N)ccc21 (stereo partly drawn) [Compound L014, (2R,4S)—N-((2S)-1-((2-amino-6,7-dihydro-5H-cyclopenta[b]pyridin-5-yl)amino)-1-oxopropan-2-yl)-4-(3-chlorobenzyl) pyrrolidine-2-carboxamide]							2.71 nM	AUClast ([1]; IV, not fasting): 89916 ± 4999 ng·h/mL; Cmax ([1]; IV, not fasting): 24633 ± 167 ng/mL; T1/2 ([1]; IV, not fasting): 7.81 ± 1.16 h; AUClast ([1]; PO, fasting): 13180 ± 3323 ng·h/mL; Cmax ([1]; PO, fasting): 1967 ± 568 ng/mL; T1/2 ([1]; PO, fasting): 12.5 h
C[C@H](NC(=O)[C@H]1CC(C(F)(F)c2ccc(F)cc2)CN1)C(=O)N[C@@H]1CCc2nc(N)ccc21 (stereo partly drawn) [Compound L050, (2R)—N—((S)-1-(((R)-2-amino-6,7-dihydro-5H-cyclopenta[b]pyridin-5-yl)amino)-1-oxopropan-2-yl)-4-(difluoro (4-fluorophenyl)methyl) pyrrolidine-2-carboxamide]							2.64 nM	AUClast ([1]; IV, not fasting): 16723 ± 860 ng·h/mL; Cmax ([1]; IV, not fasting): 27167 ± 1299 ng/mL; T1/2 ([1]; IV, not fasting): 2.13 ± 0.25 h; AUClast ([1]; PO, fasting): 3638 ± 335 ng·h/mL; Cmax ([1]; PO, fasting): 1373 ± 162 ng/mL; T1/2 ([1]; PO, fasting): 2.21 ± 0.27 h
Cc1cc(F)ccc1C1=C[C@@H](C(=O)N[C@@H](C)C(=O)N[C@@H]2CCc3nc(N)ccc32)NCC1 [Compound L074-IS-02, (S)-N-((S)-1-(((R)-2-amino-6,7-dihydro-5H-cyclopenta[b]pyridin-5-yl)amino)-1-oxopropan-2-yl)-4-(4-fluoro-2-methylphenyl)-1,2,5,6-tetrahydropyridine-2-carboxamide]							2.79 nM	
C[C@H](NC(=O)[C@@H]1C=C(c2ccc(F)cc2Cl)CCN1)C(=O)N[C@@H]1CCc2nc(N)ccc21 [Compound L075-IS-02, (S)-N-((S)-1-(((R)-2-amino-6,7-dihydro-5H-cyclopenta[b]pyridin-5-yl)amino)-1-oxopropan-2-yl)-4-(2-chloro-4-fluorophenyl)-1,2,5,6-tetrahydropyridine-2-carboxamide]							4.89 nM	
C[C@H](NC(=O)[C@@H]1C=C(c2ccc(F)c(C(F)F)c2)CCN1)C(=O)N[C@@H]1CCc2nc(N)ccc21 [Compound L078-IS-02, (S)—N—((S)-1-(((R)-2-amino-6,7-dihydro-5H-cyclopenta[b]pyridin-5-yl)amino)-1-oxopropan-2-yl)-4-(3-(difluoromethyl)-4-fluorophenyl)-1,2,5,6-tetrahydropyridine-2-carboxamide]							16.3 nM	
C[C@H](NC(=O)[C@@H]1C=C(c2ccc(F)cc2CF)CCN1)C(=O)N[C@@H]1CCc2nc(N)ccc21 [Compound L079-IS-02, (S)—N—((S)-1-(((R)-2-amino-6,7-dihydro-5H-cyclopenta[b]pyridin-5-yl)amino)-1-oxopropan-2-yl)-4-(4-fluoro-2-(fluoromethyl)phenyl)-1,2,5,6-tetrahydropyridine-2-carboxamide]							2.9 nM	
C[C@H](NC(=O)[C@@H]1C=C(c2ccc(F)cc2C(F)F)CCN1)C(=O)N[C@@H]1CCc2nc(N)ccc21 [Compound L080-IS-02, (S)—N—((S)-1-(((R)-2-amino-6,7-dihydro-5H-cyclopenta[b]pyridin-5-yl)amino)-1-oxopropan-2-yl)-4-(2-(difluoromethyl)-4-fluorophenyl)-1,2,5,6-tetrahydropyridine-2-carboxamide]							2.87 nM	
C[C@H](NC(=O)[C@@H]1C=C(c2cccc(Cl)c2)CCN1)C(=O)N[C@@H]1CCc2nc(N)ccc21 [Compound L081-IS-02, (S)—N—((S)-1-(((R)-2-amino-6,7-dihydro-5H-cyclopenta[b]pyridin-5-yl)amino)-1-oxopropan-2-yl)-4-(3-chlorophenyl)-1,2,5,6-tetrahydropyridine-2-carboxamide]							7.41 nM	
C[C@H](NC(=O)[C@H]1C=C(c2ccccc2F)CCN1)C(=O)N[C@@H]1CCc2nc(N)ccc21 [Compound L082, (R)—N—((S)-1-(((R)-2-amino-6,7-dihydro-5H-cyclopenta[b]pyridin-5-yl)amino)-1-oxopropan-2-yl)-4-(2-fluorophenyl)-1,2,5,6-tetrahydropyridine-2-carboxamide]	24700 ± 1030 ng·h/mL	3.21 ± 0.19 h	18600 ± 1960 ng/mL	6110 ± 1210 ng·h/mL	2.85 ± 0.05 h	1430 ± 283 ng/mL	8.85 nM	
Nc1ccc2c(n1)CC[C@H]2NC(=O)[C@@H]1C[C@@H]2C[C@@H]2N1C(=O)[C@H]1C[C@H](Cc2ccc(F)cc2)CN1 [Compound L104-IS-02, (1S,3S,5S)—N—((R)-2-amino-6,7-dihydro-5H-cyclopenta [b]pyridin-5-yl)-2-((2R,4S)-4-(4-fluorobenzyl)pyrrolidine-2-carbonyl)-2-azabicyclo[3.1.0]hexane-3-carboxamide]							0.97 nM	
